# According to patent US20080114020A1, “Difluoro-Substituted Imidazopyridines” (Altana Pharma AG, priority 2004, published 2008):
# Tested on: pentagastrin-stimulated acid secretion of the perfused rat stomach
# Settings: anesthetized CD rat, female; dose 1 μmol/kg i.d. (intraduodenal); pentagastrin 1 μg/kg i.v. infusion
# Method: The abdomen of anesthetized rats (CD rat, female, 200-250 g; 1.5 g/kg i.m. urethane) was opened after tracheotomy by a median upper abdominal incision and a PVC catheter was fixed transorally in the esophagus and another via the pylorus such that the ends of the tubes just projected into the gastric lumen. The catheter leading from the pylorus led outward into the right abdominal wall through a side opening.
# After thorough rinsing (about 50-100 ml), warm (37° C.) physiological NaCl solution was continuously passed through the stomach (0.5 ml/min, pH 6.8-6.9; Braun-Unita I). The pH (pH meter 632, glass electrode EA 147; φ=5 mm, Metrohm) and, by titration with a freshly prepared 0.01 N NaOH solution to pH 7 (Dosimat 665 Metrohm), the secreted HCl were determined in the effluent in each case collected at an interval of 15 minutes.
# The gastric secretion was stimulated by continuous infusion of […] (=1.65 ml/h) of i.v. pentagastrin (left femoral vein) about 30 min after the end of the operation (i.e. after determination of 2 preliminary fractions). The substances to be tested were administered intraduodenally in a 2.5 ml/kg liquid volume 60 min after the start of the continuous pentagastrin infusion. The body temperature of the animals was kept at a constant 37.8-38° C. by infrared irradiation and heat pads (automatic, stepless control by means of a rectal temperature sensor).
row,SMILES,Inhibition of acid secretion (%)
1,"Cc1nc2c3c(ccn2c1C)C(c1ccccc1)C(O)C(F)(F)O3 [Example 1, (8R,9R)-7,7-Difluoro-2,3-dimethyl-8-hydroxy-9-phenyl-7H-8,9-dihydro-pyrano[2,3-c]imidazo[1,2-a]pyridine]",>85%
2,"CC(=O)OC1C(c2ccccc2)c2ccn3c(C)c(C)nc3c2OC1(F)F [Example 2, (8R,9R)-8-Acetoxy-7,7-difluoro-2,3-dimethyl-9-phenyl-7H-8,9-dihydro-pyrano[2,3-c]imidazo[1,2-a]pyridine]",>85%
3,"COCC(=O)O[C@@H]1[C@@H](c2ccccc2)Oc2c(ccn3c(C)c(C)nc23)C1(F)F [Example 8, (8R,9R)-7,7-Difluoro-2,3-dimethyl-8-(2-methoxy-acetyloxy)-9-phenyl-7H-8,9-dihydro-pyrano[2,3-c]imidazo[1,2-a]pyridine]",>85%
4,"Cc1nc2c3c(ccn2c1C)C(c1ccccc1)C(OC(=O)CN(C)C)C(F)(F)O3 [Example 9, (8R,9R)-7,7-Difluoro-2,3-dimethyl-8-(2-dimethylamino-acetyloxy)-9-phenyl-7H-8,9-dihydro-pyrano[2,3-c]imidazo[1,2-a]pyridine]",>85%
5,"COC(=O)O[C@@H]1[C@@H](c2ccccc2)Oc2c(ccn3c(C)c(C)nc23)C1(F)F [Example 10, (8R,9R)-7,7-Difluoro-2,3-dimethyl-8-(methoxy-carbonyloxy)-9-phenyl-7H-8,9-dihydro-pyrano[2,3-c]imidazo[1,2-a]pyridine]",>85%
